The RepoRT retention time repository

Test: RP, Waters ACQUITY UPLC BEH C18, 50 × 2.1 mm, 1.7 µm, 40 °C, 0.6 mL/min, estimated dead time 0.18 min; A: water + 0.1% formic acid, pH 3; B: acetonitrile + 0.1% formic acid, pH 3; gradient (min/%B) 0/5 7/100 8/100
Conditions: stereoisomer not certain

Row | Structure (SMILES) | LC retention time
1 | CCC(C)C(=O)C1=C(O)C2(CC=C(C)C)CC(CCC(C)(C)NC(C)=O)C(C)(C)C(C(CC(=O)O)c3ccccc3)=C2OC1=O (stereo not given) | 4.87 min
2 | CC(C)(O)/C=C/C(=O)[C@](C)(O)[C@H]1[C@H](O)C[C@@]2(C)[C@@H]3CC=C4[C@@H](C[C@H](O)C(=O)C4(C)C)[C@]3(C)C(=O)C[C@]12C | 2.77 min
3 | COc1cc2c3c(c1OC)Oc1ccc(cc1)CC1c4c(cc(OC)c5c4Oc4ccc(cc4CO5)CC3N(C)CC2)CCN1C (stereo not given) | 1.6 min
4 | C=C(C)C12CC(C)C34OC(CCCCCCCCCCCCC)(OC1C3C1OC1(CO)C(O)C1(O)C(=O)C(C)=CC14)O2 (stereo not given) | 6.97 min
5 | O=C(c1ccc(O)cc1O)[C@H]1[C@H](C(=O)c2ccc(O)cc2O)[C@H](c2ccc(O)cc2)O[C@@H]1c1ccc(O)cc1 | 2.81 min
6 | CCCCCCCCCCC/C=C\CC[C@@H]1CCC[C@@H](C)N1 [(2R,6S)-2-methyl-6-[(3Z)-pentadec-3-en-1-yl]piperidine] | 4.84 min
7 | CCC(O)C(/C=C1\C(=O)C=CC1(O)CCCCCCCC(=O)OC)OC(C)=O (stereo not given) | 3.08 min
8 | COc1ccc(C2Oc3c(c(O)cc(O)c3C3C(=O)c4c(O)cc(O)cc4OC3c3ccc(O)cc3)C(=O)C2O)cc1O (stereo not given) | 1.69 min
9 | C=C(C(=O)CC(C)C1CCC2(C)C3CCC4C(C)(C(=O)OC5OC(C)C(O)C(O)C5O)C(O)CCC45CC35CCC12C)C(C)C (stereo not given) | 5.23 min
10 | COC(=O)[C@@]12C[C@@H]3C[C@H]([C@H](C)O)C1N(CCc1c2[nH]c2ccccc12)C3 | 1.91 min
11 | CCCCCCCCCCCC(=O)OC12CC(C)C3(O)C(C4OC4(CO)C(O)C4(O)C(=O)C(C)=CC43)C1C2(C)C (stereo not given) | 5.96 min
12 | CC[C@H]1C[C@H]2CN3CCc4c([nH]c5ccc(OC)cc45)[C@](C(=O)OC)(C2)C13 | 2.02 min
13 | COc1cccc2nc3occc3c(OC)c12 [4,5-dimethoxyfuro[2,3-b]quinoline] | 2.62 min
14 | O=C(/C=C/c1ccc(O)cc1)OC[C@H]1O[C@@H](Oc2cc(O)c3c(=O)cc(-c4ccc(O)cc4)oc3c2)[C@H](OC(=O)/C=C/c2ccc(O)cc2)[C@@H](O)[C@@H]1O | 3.15 min
15 | C=C1C2CCC3C4(C)CCCC(C)(C(=O)O)C4CCC3(C2)C1O (stereo not given) | 3.64 min
16 | CC/C=C/CC(O)C(O)/C=C/C(O)CCCCCCCC(=O)O (stereo not given) [(10E,15E)-9,12,13-trihydroxyoctadeca-10,15-dienoic acid] | 2.6 min
17 | C=C1[C@@H](O)C[C@H]2[C@](C)(CO)CCC[C@]2(C)[C@H]1CC1C(C)=CCC2C(=O)C(OC)=CC(=O)C21c1cc(=O)c2c(O)cc(O)cc2o1 (stereo not given in full) | 3.02 min
18 | C=C(C(=O)C(OC(C)=O)C(C)C1C(OC(C)=O)CC2(C)C3CCC4C(C)C(=O)C=CC45CC35CCC12C)C(C)CO (stereo not given) | 4.41 min
19 | COc1ccc(-c2oc3cc(O)c(OC)c(O)c3c(=O)c2OC)cc1 | 3.08 min
20 | C[C@@H]1CC2(N=CCS2)[C@]2(O)OC3C[C@@]4(C=O)C(CCC5C4CC[C@]4(C)C(C6=CC(=O)OC6)CC[C@]54O)CC3OC2O1 (stereo not given in full) | 0.662 min
21 | C/C=C/C(CC1C(=O)C=CC1(O)CCCCCCCC(=O)O)OC(C)=O (stereo not given) | 2.88 min
22 | C=C1COC(=O)C12C[C@@]1(C)C([C@@H](OC(=O)/C=C/SC)CC[C@@H]1C)[C@H]2OC(C)=O (stereo not given in full) | 4.07 min
23 | COc1c(-c2c(C)cc(OC)c3c(OC)cccc23)c(O)cc2c1C(C)NC(C)C2 (stereo not given) | 2.1 min
24 | CCCCCCCCCCCCCCCC(=O)OC12CC(C)C3(O)C(C4OC4(CO)C(O)C4(O)C(=O)C(C)=CC43)C1C2(C)C (stereo not given) | 6.96 min

Row | Structure (SMILES) | LC retention time
25 | C/C(=C\CC/C=C(\C)CC/C=C(\C)CCC(O)C(C)(C)O)CC/C=C(\C)CCC(O)C(C)(C)O (stereo not given) | 5.34 min
26 | COc1ccc(-c2oc3cc(O)c(OC)c(O)c3c(=O)c2OC)cc1O | 2.2 min
27 | CC(C)=CCc1c(O)cc2oc(-c3ccc(O)cc3)c(O)c(=O)c2c1O | 3.98 min
28 | CC1CCC2(C)C(CCC(O)C2(C)O)C1(C)CC(O)c1ccoc1 (stereo not given) | 5.61 min
29 | CC1=C2CC3(C)C(C)CCCC3CC2(O)OC1=O (stereo not given) | 3.6 min
30 | C/C=C1/CN(C)C[C@H]2Cc3c([nH]c4ccccc34)C(=O)C[C@@H]12 | 1.62 min
31 | C=C(C(=O)C(O)C(C)C1C(OC(C)=O)CC2(C)C3CCC4C(C)C(=O)C=CC45CC35CCC12C)C(C)C (stereo not given) | 5.56 min
32 | CCC1C2CCCCN3CCC(C4C(C)C(=O)OC14)C23 (stereo not given) | 1.34 min
33 | COc1ccc(Cc2nccc3cc(OC)c(OC)cc23)cc1OC [1-[(3,4-dimethoxyphenyl)methyl]-6,7-dimethoxyisoquinoline] | 1.79 min
34 | CC(C)(O)/C=C/C(=O)[C@](C)(O)[C@H]1[C@H](O)C[C@@]2(C)C3CC=C4C(CC(=O)C(O)C4(C)C)[C@]3(C)C(=O)C[C@]12C (stereo not given in full) | 2.9 min
35 | COc1c(O)cc(-c2oc3cc(O)cc(O)c3c(=O)c2O[C@@H]2O[C@@H](C)[C@H](O)[C@@H](O)[C@H]2O)cc1O | 0.287 min
36 | Oc1ccc(C2c3c(O)cc(O)cc3C3C(c4ccc(O)cc4)c4c(O)cc(O)cc4C23)cc1 (stereo not given) | 1.77 min
37 | CC12CCCc3coc(c31)C(=O)c1cc3c(cc12)C(=O)C=CC3=O (stereo not given) | 2.6 min
38 | COc1c(O)cc2c3c1C1(C=CC(=O)C=C1)CC3N(C)CC2 (stereo not given) | 0.738 min
39 | COC(=O)C1=CC(O)C23OOC1CC2(C)CCC3C(C)C (stereo not given) | 3.72 min
40 | Cn1c(Cc2ccccc2)nc(=O)c2ccccc21 [2-benzyl-1-methyl-1,4-dihydroquinazolin-4-one] | 1.8 min
41 | CCN1CC2(COC(=O)c3ccccc3N3C(=O)CC(C)C3=O)CCC(OC)C34C5CC6C(OC)CC(O)(C5C6OC)C(O)(C(OC)C23)C14 (stereo not given) | 2.22 min
42 | CC(CC[C@@H](C)[C@H]1CCC2C3C[C@H](OS(=O)(=O)O)[C@H]4C[C@H](OS(=O)(=O)O)C(OS(=O)(=O)O)C[C@]4(C)C3CC[C@@]21C)C(C)(C)C (stereo not given in full) | 1.41 min
43 | COc1cc2c3cc1Oc1c(cccc1OC)CC1c4c(cc(OC)c(OC)c4Oc4cccc(c4)CC3N(C)CC2)CCN1C (stereo not given) | 1.7 min
44 | CC(=O)OC1CC(O)C23COCC1(C)C2CC(O)C1(C)C3C(=O)C(O)C2(C)C(c3ccoc3)CC3OC321 (stereo not given) | 2.27 min
45 | C/C(=C\C1CC(C2CCC34CC23C=CC2C3(C)CC=C5CC(c6ccccc6)OCC5(C)C3CC(O)C24C)C(=O)O1)CO (stereo not given) | 5.22 min
46 | CC[C@H]1NC2C[C@@]3(C(=O)N(OC)c4ccccc43)C3CC1C2CO3 (stereo not given in full) | 1.79 min
47 | COc1cc(CC(CO)C(CO)Cc2ccc(O)c(OC)c2)ccc1O (stereo not given) [2,3-bis[(4-hydroxy-3-methoxyphenyl)methyl]butane-1,4-diol] | 0.28 min
48 | C[C@@H]1CC2(N=CCS2)[C@]2(O)OC3C[C@@]4(C=O)C(CCC5C4CC[C@]4(C)C(C6=CC(=O)OC6)CC(O)[C@]54O)CC3OC2O1 (stereo not given in full) | 0.41 min

Row | Structure (SMILES) | LC retention time
49 | C=C(CO)C(=O)OC1CC(=C)C2CC(=O)C(C)C2C2OC(=O)C(=C)C12 (stereo not given) | 3.08 min
50 | C=C1[C@@H](O)C[C@H]2C(C)(C)CCC[C@]2(C)[C@H]1CC1C(C)=CCC2C(=O)C(OC)=CC(=O)C21c1cc(=O)c2c(O)cc(O)cc2o1 (stereo not given in full) | 2.12 min
51 | COc1cc(CCN(C)C)c2ccc3cc4c(c5c3c2c1OC5)OCO4 | 2.24 min
52 | Cc1coc2c1C(=O)C(=O)c1c-2ccc2c(C)cccc12 [1,6-dimethyl-10H,11H-phenanthro[1,2-b]furan-10,11-dione] | 3.42 min
53 | C=CCc1ccc(O)c(-c2cc(CC=C)ccc2O)c1 [5,5'-bis(prop-2-en-1-yl)-[1,1'-biphenyl]-2,2'-diol] | 2.78 min
54 | C=C1[C@@H](O)C[C@H]2C(C)(C)C[C@H](O)C[C@]2(C)[C@H]1CC1C(C)=CCC2C(=O)C(OC)=CC(=O)C21c1cc(=O)c2c(O)cc(O)cc2o1 (stereo not given in full) | 0.702 min
55 | CC12CCC(C(OC(=O)/C=C/c3ccc(O)cc3)C1)C2(C)C (stereo not given) | 4.89 min
56 | CCCCCCCCCCC[C@@H]1CCC[C@@H](C)N1 [(2R,6R)-2-methyl-6-undecylpiperidine] | 4.03 min
57 | CC1CC(O)C2(C)C(CCC(O)C2(C)O)C1(C)CC(=O)c1ccoc1 (stereo not given) | 2.35 min
58 | C[C@@H]1CC2(NCCS2)[C@]2(O)OC3C[C@@]4(C=O)C(CCC5C4CC[C@]4(C)C(C6=CC(=O)OC6)CC(O)[C@]54O)CC3OC2O1 (stereo not given in full) | 0.365 min
59 | CC1CCC2(C)C(CCC3OC32C)C1(C)CC(=O)c1ccoc1 (stereo not given) | 3.41 min
60 | COC(=O)C1=COC(OC2OC(CO)C(O)C(O)C2O)C2C(O)CN3CCc4c([nH]c5ccccc45)[C@@H]3CC12 (stereo not given in full) | 1.29 min
61 | COc1ccc2c3c(c4cc(OC)c(OC)cc4c2c1)CC1CCCN1C3 (stereo not given) | 2.27 min
62 | C/C(=C/CC[C@H](C)[C@@H]1CC[C@]2(C)C3=CCC4C(C)(C)C(=O)CC[C@]4(C)C3CC[C@@]12C)C(=O)O (stereo not given in full) | 6.25 min
63 | CCC1C2CCCCN3C(C4CC(C)C(=O)O4)CC(C4C(C)C(=O)OC14)C23 (stereo not given) | 1.55 min
64 | O=C1CC(c2ccc(O)cc2)Oc2cc3c(c(O)c21)C(C(=O)c1ccc(O)cc1O)C(c1ccc(O)cc1)O3 (stereo not given) | 2.78 min
65 | C=CC12CN(C)C3C4COC(C[C@@H]41)[C@]1(C(=O)Nc4ccccc41)C32 (stereo not given in full) | 1.01 min
66 | C=C(CO)C(=O)OC1CC(=C)C2CC(O)C(=C)C2C2OC(=O)C(=C)C12 (stereo not given) | 2.16 min
67 | COc1cc2c(cc1O)C(Cc1ccc(OC3=CC4(C=CC3=O)CC3c5c(cc(OC)c(OC)c54)CCN3C)cc1)N(C)CC2 (stereo not given) | 1.59 min
68 | COc1c(O)c(C(=O)C2CC=C(CCC=C(C)C)CC2c2ccccc2)c(OC)c(OC)c1OC (stereo not given) | 5.69 min
69 | CC(=O)OC(C)(C)CCC(=O)[C@](C)(O)C1[C@H](O)C[C@@]2(C)C3CC=C4C(C[C@H](O)[C@@H](O)C4(C)C)[C@]3(C)C(=O)C[C@]12C (stereo not given in full) | 3.06 min
70 | C/C=C1/CN2CCc3c([nH]c4ccccc34)[C@@](CO)(C(=O)OC)[C@H]1CC2 | 1.32 min
